{"source": "patent US20090253634A1", "about": "“Methods and Compositions for the Treatment of Gastrointestinal Disorders” (MICROBIA, INC., priority 2005, published 2009)", "key": {"[1]": {"tested_on": "abdominal EMG response to colorectal distension", "assay": "colorectal distension in WT and GC-C KO mice, basal and TNBS-induced", "format": "in vivo", "conditions": "for TNBS induced hypersensitivity to CRD: oral 0.01 μg/kg", "procedure": "TNBS induced visceral hypersensitivity was assessed in WT and GC-C KO mice. Two groups (WT and GC-C KO) of male mice (22-25g) were surgically prepared for electromyographic (EMG) recordings. Three electrodes were implanted in the striated muscles of the abdomen for EMG recording of abdominal contractions. Colorectal distension (CRD) was performed with a balloon inflated by 10 s steps of 0.02 ml from 0 to 0.12 ml. Under basal conditions mice were submitted to control CRD (time 0) followed by oral administration of SEQ ID NO:3 (0.01 and 0.3 μg/kg) or vehicle only (distilled water, 1 ml) at 3 hours. One hour post dosing the CRD procedure was repeated. Abdominal EMG contractile response to colorectal distension in basal conditions in both WT and GC-C KO mice (12-14 mice per group) was determined in the absence of vehicle and SEQ ID NO:3, and the mean +/− standard error of the mean (SEM) is graplhically depicted in FIG. 7c.\nFor TNBS induced visceral hypersensitivity conditions, mice were submitted to control CRD (time 0) and TNBS (20 mg/kg) was administered at 3 days. Three days post intracolonic TNBS-induction animals were orally admistered SEQ ID NO:3 (0.01 and 0.3 μg/kg) or vehicle (distilled water, 1 ml) 1 hour before CRD. The effect of SEQ ID NO:3 (0.01 μg/kg) on abdominal response to colorectal distension after TNBS in WT and GC-C KO mice (12-14 per group) at a volume distension of […] was determined and the mean +/− standard error of the mean (SEM) is graphically depicted in FIG. 7d."}, "guanylate cyclase C": {"target": "T1, guanylate cyclase C (Mus musculus, UniProt Q3UWA6)", "T1 construct": "isolated intestinal epithelial cells from two female wild-type and two female GC-C KO mice; from tissue; host or cells: mouse intestinal epithelial cells (homogenised), wild-type; GC-C KO mice as control", "T1 sequence (Q3UWA6 20-1072)": "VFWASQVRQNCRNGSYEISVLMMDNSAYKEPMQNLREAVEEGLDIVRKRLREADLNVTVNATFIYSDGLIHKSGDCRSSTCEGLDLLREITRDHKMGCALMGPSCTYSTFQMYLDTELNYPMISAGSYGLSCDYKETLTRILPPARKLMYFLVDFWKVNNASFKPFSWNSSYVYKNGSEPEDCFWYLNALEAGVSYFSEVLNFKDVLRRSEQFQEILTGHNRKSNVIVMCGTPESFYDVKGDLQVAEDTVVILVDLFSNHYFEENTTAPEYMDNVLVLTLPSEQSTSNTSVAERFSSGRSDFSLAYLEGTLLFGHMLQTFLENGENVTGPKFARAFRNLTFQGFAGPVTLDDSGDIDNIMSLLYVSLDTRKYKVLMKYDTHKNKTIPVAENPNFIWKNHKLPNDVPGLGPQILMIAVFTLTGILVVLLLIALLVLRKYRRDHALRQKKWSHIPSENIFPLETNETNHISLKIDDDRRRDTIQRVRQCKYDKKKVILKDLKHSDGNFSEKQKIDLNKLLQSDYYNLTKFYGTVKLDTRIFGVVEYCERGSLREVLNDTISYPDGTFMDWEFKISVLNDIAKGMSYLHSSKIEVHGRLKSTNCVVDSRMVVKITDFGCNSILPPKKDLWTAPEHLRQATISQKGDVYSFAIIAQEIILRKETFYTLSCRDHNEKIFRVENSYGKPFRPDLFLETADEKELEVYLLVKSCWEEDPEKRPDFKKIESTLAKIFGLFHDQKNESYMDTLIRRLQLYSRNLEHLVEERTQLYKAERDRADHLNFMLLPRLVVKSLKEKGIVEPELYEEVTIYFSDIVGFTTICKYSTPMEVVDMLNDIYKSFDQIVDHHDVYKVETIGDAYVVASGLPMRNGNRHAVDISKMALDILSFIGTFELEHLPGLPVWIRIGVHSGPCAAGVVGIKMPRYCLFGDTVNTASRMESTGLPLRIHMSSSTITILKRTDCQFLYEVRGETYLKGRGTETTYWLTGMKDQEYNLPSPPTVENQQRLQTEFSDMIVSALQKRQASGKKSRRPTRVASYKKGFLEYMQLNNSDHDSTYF", "assay": "competition binding assay on intestinal epithelial cells of wild-type and GC-C KO mice", "conditions": "GC-C KO mice compared to wild-type mice; 125I-SEQ ID NO:3", "protocol": "Mouse intestinal epithelial cells were prepared identical to that above as for rat intestinal epithelial cells except the cells were homogenized with an Omni homogenizer for 20 seconds on the maximum setting to make a suspension of cells. A competition binding assay was performed identical to that described above between ^125I labeled SEQ ID NO:3 and unlabeled SEQ ID NO:3 (competitor)."}, "gastrointestinal transit": {"tested_on": "gastrointestinal transit", "assay": "rat gastrointestinal transit (GIT) assay", "format": "in vivo, CD rats", "procedure": "In order to determine whether the peptides increase the rate of gastrointestinal transit, the peptides and controls were tested using a murine gastrointestinal transit (GIT) assay (Moon et al. Infection and Immunity 25:127, 1979). In this assay, charcoal, which can be readily visualized in the gastrointestinal tract is administered to mice after the administration of a test compound. The distance traveled by the charcoal is measured and expressed as a percentage of the total length of the […].\nMice were fasted with free access to water for 12 to 16 hours before the treatment with peptide or control buffer. The peptides were orally administered at 1 μg/kg-1 mg/kg of peptide in buffer ([…] pH 7.5) 7 minutes before being given an oral dose of 5% Activated Carbon (Aldrich 242276-250G). Control mice were administered buffer only before being given a dose of Activated Carbon. After 15 minutes, the mice were sacrificed and their intestines from the stomach to the cecum were dissected. The total length of the intestine as well as the distance traveled from the stomach to the charcoal front was measured for each animal and the results are expressed as the percent of the total length of the intestine traveled by the charcoal front. All results are reported as the average of 10 mice±standard deviation. […] P-values are calculated using a two-sided T-Test assuming unequal variances. […]"}, "[2]": {"tested_on": "ligated loops of intestine", "assay": "ligated intestinal loop model in rats", "format": "in vivo, CD rats", "conditions": "center loop of the rat small intestine; 5 μg", "protocol": "The loop was roughly centered and was a length of 1-3 cm. The loops were injected with 100 μl of either SEQ ID NO:3 (5 μg) or vehicle (20 mM Tris, pH 7.5 or Krebs Ringer, 10 mM Glucose, HEPES buffer (KRGH)). Following a recovery time of 90 minutes the loops were excised. Weights were recorded for each loop before and after removal of the fluid contained therein. The length of each loop was also recorded. A weight to length ratio (W/L) for each loop was calculated to determine the effects of SEQ ID NO:3 on secretion.\nTo determine the effect of SEQ ID NO:3 on cGMP activity, fluid from the loop was collected in ice-cold trichloracetic acid (TCA) and stored at −80° C. for use in an assay to measure cGMP levels in the fluid. Intestinal fluid samples were TCA extracted, and cyclic GMP was measured by EIA according to procedures outlined in the Cayman Chemical Cyclic GMP EIA kit (Cayman Chemical, Ann Arbor, Mich.) to determine cyclic GMP levels in the intestinal fluid of the mouse in the presence of either SEQ ID NO:3 or vehicle.\nIn the case of the rat, however four loops of intestine were surgically ligated. The first three loops were distributed equally in the small intestine and the fourth loop was located in colon. Loops were 1 to 3 centimeters, and were injected with 200 μL of either SEQ ID NO:3 (5 μg) or vehicle (Krebs Ringer, 10 mM glucose, HEPES buffer (KRGH))."}, "chymotrypsin": {"target": "T2, chymotrypsin (Bos taurus, UniProt P00766)", "T2 construct": "purchased Sigma-Aldrich C6423; host or cells: bovine pancreas", "assay": "in vitro proteolytic stability: chymotrypsin", "format": "in vitro ADME, bovine", "conditions": "37° C., up to 24 h", "procedure": "All samples were analyzed by LC/MS\nSamples were returned to the 37° C. water bath."}}, "note": "Bridge positions count the residues as written; N and C are the ends. Peptide text beside a SMILES is read from it.", "data": [{"compound": "C[C@@H]1NC(=O)[C@@H]2CCCN2C(=O)[C@H](CC(N)=O)NC(=O)[C@@H]2CSSC[C@H](N)C(=O)N[C@H]3CSSC[C@H](NC1=O)C(=O)N[C@@H]([C@@H](C)O)C(=O)NCC(=O)N[C@H](C(=O)N[C@@H](Cc1ccc(O)cc1)C(=O)O)CSSC[C@H](NC(=O)[C@H](Cc1ccc(O)cc1)NC(=O)[C@H](CCC(=O)O)NC3=O)C(=O)N2", "note": "[SEQ ID NO:3] (H-CCEYCCNPACTGCY-OH; disulfide 1-6, 2-10, 5-13; N-terminus and C-terminus assumed)", "values": [{"measurement": "TNBS induced hypersensitivity to CRD", "setting": "[1]; GC-C KO mice", "result": "not observed"}, {"measurement": "TNBS induced hypersensitivity to CRD", "setting": "[1]; WT mice, volume distension of 0.8 ml", "result": "reduces the TNBS induced hypersensitivity to CRD"}, {"measurement": "EMG response to colorectal distension", "setting": "[1]; basal conditions, WT mice, oral 0.01 and 0.3 μg/kg", "result": "decreased the EMG response to colorectal distension"}, {"measurement": "binding to intestinal epithelial cells", "setting": "guanylate cyclase C", "result": "reduction in SEQ ID NO:3 binding"}, {"measurement": "intestinal transit, dose dependence", "setting": "gastrointestinal transit; female rats, similar effects in male rats, FIG. 4e", "result": "increases in a dose dependent manner"}, {"measurement": "intestinal transit", "setting": "gastrointestinal transit; rat GIT assay, FIG. 4d", "result": "intestinal transit increases"}, {"measurement": "cGMP levels in ligated loop", "setting": "[2]", "result": "increases"}, {"measurement": "secretion in ligated loop", "setting": "[2]", "result": "increases"}, {"measurement": "Cleavage of SEQ ID NO: 3 by proteolytic substance", "setting": "chymotrypsin", "result": "not detectable"}]}]}
